The values below come from publication PMC10546487 (Journal of medicinal chemistry, 2022).

One may read the Ki as the dissociation constant of the complex between target and ligand, obtained from inhibition or displacement.

The target in this experiment is DOR (Mus musculus, UniProt P32300). The experiment in a line: Radioligand competition binding assay, DOR. (In general: In a radioligand displacement assay an active substance lowers the binding of a labelled ligand.)
Chain of DOR (P32300 whole entry): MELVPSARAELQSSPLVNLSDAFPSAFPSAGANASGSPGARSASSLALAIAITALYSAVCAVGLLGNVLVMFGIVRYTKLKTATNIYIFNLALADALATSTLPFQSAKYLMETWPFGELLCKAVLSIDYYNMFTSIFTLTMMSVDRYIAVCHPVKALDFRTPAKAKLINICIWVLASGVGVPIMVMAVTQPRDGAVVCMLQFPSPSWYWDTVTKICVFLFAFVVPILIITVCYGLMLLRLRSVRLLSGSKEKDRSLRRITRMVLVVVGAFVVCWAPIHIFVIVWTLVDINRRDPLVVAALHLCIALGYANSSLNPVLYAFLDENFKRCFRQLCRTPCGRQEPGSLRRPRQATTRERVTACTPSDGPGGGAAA

As to `O=C(N[C@@H]1CC[C@@]2(O)[C@H]3Cc4ccc(O)c5c4[C@@]2(CCN3CC2CC2)[C@H]1O5)c1cccc2c(Br)c[nH]c12` [Compound 6, 17-Cyclopropylmethyl-3,14β-dihydroxy-4,5α-epoxy-6β-(3-bromo-indole-7-carboxamido)morphinan], the Ki stood at 11.6 ± 2.68 nM. To `CC(=O)Nc1c[nH]c2c(C(=O)N[C@@H]3CC[C@@]4(O)[C@H]5Cc6ccc(O)c7c6[C@@]4(CCN5CC4CC4)[C@H]3O7)cccc12` [Compound 12, 17-Cyclopropylmethyl-3,14β-dihydroxy-4,5α-epoxy-6β-(3-acet-amido-indole-7-carboxamido)morphinan] belongs 31 ± 4.96 nM; to `O=C(N[C@@H]1CC[C@@]2(O)[C@H]3Cc4ccc(O)c5c4[C@@]2(CCN3CC2CC2)[C@H]1O5)c1cccc2c(-c3ccccc3)c[nH]c12` [Compound 17, 17-Cyclopropylmethyl-3,14β-dihydroxy-4,5α-epoxy-6β-(3-phenyl-indole-7-carboxamido)morphinan], 49.3 ± 10.1 nM. Molecule `CC(=O)Nc1c[nH]c2c(C(=O)N[C@H]3CC[C@@]4(O)[C@H]5Cc6ccc(O)c7c6[C@@]4(CCN5CC4CC4)[C@H]3O7)cccc12` [Compound 29, 17-Cyclopropylmethyl-3,14β-dihydroxy-4,5α-epoxy-6α-(3-acet-amido-indole-7-carboxamido)morphinan] had a Ki of 5.19 ± 0.35 nM. `O=C(N[C@@H]1CC[C@@]2(O)[C@H]3Cc4ccc(O)c5c4[C@@]2(CCN3CC2CC2)[C@H]1O5)c1cccc2cc(Cl)[nH]c12` [Compound 2, 17-Cyclopropylmethyl-3,14β-dihydroxy-4,5α-epoxy-6β-(2-chloro-indole-7-carboxamido)morphinan] showed a Ki of 2.42 ± 0.44 nM. The figure for `O=C(N[C@@H]1CC[C@@]2(O)[C@H]3Cc4ccc(O)c5c4[C@@]2(CCN3CC2CC2)[C@H]1O5)c1cccc2cc(-c3ccccc3)[nH]c12` [Compound 5, 17-Cyclopropylmethyl-3,14β-dihydroxy-4,5α-epoxy-6β-(2-phenyl-indole-7-carboxamido)morphinan] is 23.8 ± 3.96 nM; for `O=C(N[C@H]1CC[C@@]2(O)[C@H]3Cc4ccc(O)c5c4[C@@]2(CCN3CC2CC2)[C@H]1O5)c1cccc2c(C3CCCCC3)c[nH]c12` [Compound 33, 17-Cyclopropylmethyl-3,14β-dihydroxy-4,5α-epoxy-6α-(3-cyclo-hexyl-indole-7-carboxamido)morphinan] it is 18.6 ± 7.24 nM. To `N#Cc1cc2cccc(C(=O)N[C@@H]3CC[C@@]4(O)[C@H]5Cc6ccc(O)c7c6[C@@]4(CCN5CC4CC4)[C@H]3O7)c2[nH]1` [Compound 3, 17-Cyclopropylmethyl-3,14β-dihydroxy-4,5α-epoxy-6β-(2-cyano-indole-7-carboxamido)morphinan] belongs 12 ± 0.62 nM; to `N#Cc1c[nH]c2c(C(=O)N[C@@H]3CC[C@@]4(O)[C@H]5Cc6ccc(O)c7c6[C@@]4(CCN5CC4CC4)[C@H]3O7)cccc12` [Compound 8, 17-Cyclopropylmethyl-3,14β-dihydroxy-4,5α-epoxy-6β-(3-cyano-indole-7-carboxamido)morphinan], 25.4 ± 3.39 nM; to `O=C(N[C@H]1CC[C@@]2(O)[C@H]3Cc4ccc(O)c5c4[C@@]2(CCN3CC2CC2)[C@H]1O5)c1cccc2c(Br)c[nH]c12` [Compound 23, 17-Cyclopropylmethyl-3,14β-dihydroxy-4,5α-epoxy-6α-(3-bromo-indole-7-carboxamido)morphinan], 19.2 ± 3.99 nM. `CC(C)c1c[nH]c2c(C(=O)N[C@H]3CC[C@@]4(O)[C@H]5Cc6ccc(O)c7c6[C@@]4(CCN5CC4CC4)[C@H]3O7)cccc12` [Compound 31, 17-Cyclopropylmethyl-3,14β-dihydroxy-4,5α-epoxy-6α-(3-iso-propyl-indole-7-carboxamido)morphinan] gave a Ki of 25.9 ± 5.69 nM.
